The test concerns the target T1, TMPRSS2 (Homo sapiens, UniProt O15393).
T1 construct: purchased BPS Bioscience 780837
The test is described as follows: TMPRSS2 fluorogenic protease inhibition assay (BPS Bioscience kit). Conditions: for IC50: fluorogenic substrate, 30 min pre-incubation at room temperature, average of two independent experiments in duplicate (N = 4), read-out: IC50, in vitro TMPRSS2 enzyme inhibition. The class given is biochemical.

Several values for one entry are separate records, joined by “and”; a condition that tells them apart may be missing. Identical values can stand only once.

T1 sequence (O15393 whole entry): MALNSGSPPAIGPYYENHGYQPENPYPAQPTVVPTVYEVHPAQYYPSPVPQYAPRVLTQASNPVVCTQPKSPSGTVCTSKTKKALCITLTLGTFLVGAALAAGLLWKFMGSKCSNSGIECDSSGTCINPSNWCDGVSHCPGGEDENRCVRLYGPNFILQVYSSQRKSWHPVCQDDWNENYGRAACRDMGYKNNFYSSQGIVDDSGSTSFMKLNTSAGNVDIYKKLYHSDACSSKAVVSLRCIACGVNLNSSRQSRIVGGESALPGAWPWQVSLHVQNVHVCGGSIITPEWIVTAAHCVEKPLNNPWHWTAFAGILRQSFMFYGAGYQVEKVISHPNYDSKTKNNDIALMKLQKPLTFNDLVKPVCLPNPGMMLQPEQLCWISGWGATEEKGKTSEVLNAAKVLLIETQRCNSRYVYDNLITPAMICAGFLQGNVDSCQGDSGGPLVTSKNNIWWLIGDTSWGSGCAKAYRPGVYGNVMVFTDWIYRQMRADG

`CN(C)C(=O)CNC(=O)Cc1ccc(NC(=O)c2ccc(NC(=N)N)cc2)cc1` [Compound 1e]: the “TMPRSS2 inhibition (in words)” value (fluorogenic assay, concentrations 0.007-0.1054 µM) was “fell out of the range of the assay”.
As a reminder, the IC50 is the concentration that inhibits the measured activity by half. For the compound `N=C(N)Nc1ccc(C(=O)Oc2ccc(CC(=O)OCC(=O)N3CCOCC3)cc2)cc1` [Compound 1d], the concentration for half-maximal inhibition (IC50) is 1.79 nM and 1.8 nM.
As to `CNC(=O)COC(=O)Cc1ccc(OC(=O)c2ccc(NC(=N)N)cc2)cc1` [Compound 1c], the half-inhibitory concentration (IC50) is 1.27 nM and 1.3 nM.

Source of the values: article PMC12295440, “C-Terminal Analogues of Camostat Retain TMPRSS2 Protease Inhibition: New Synthetic Directions for Antiviral Repurposing of Guanidinium-Based Drugs in Respiratory Infections” (International Journal of Molecular Sciences, 2025).
